The results in this text go back to US6410704B1 (priority 1991, dated 2002).

The target in this assay is herpes protease (HSV-1 UL26 product, Pra) (Human herpesvirus 1, UniProt P10210). It is filed as biochemical.
Chain of herpes protease (HSV-1 UL26 product, Pra) (P10210 whole entry, looked up): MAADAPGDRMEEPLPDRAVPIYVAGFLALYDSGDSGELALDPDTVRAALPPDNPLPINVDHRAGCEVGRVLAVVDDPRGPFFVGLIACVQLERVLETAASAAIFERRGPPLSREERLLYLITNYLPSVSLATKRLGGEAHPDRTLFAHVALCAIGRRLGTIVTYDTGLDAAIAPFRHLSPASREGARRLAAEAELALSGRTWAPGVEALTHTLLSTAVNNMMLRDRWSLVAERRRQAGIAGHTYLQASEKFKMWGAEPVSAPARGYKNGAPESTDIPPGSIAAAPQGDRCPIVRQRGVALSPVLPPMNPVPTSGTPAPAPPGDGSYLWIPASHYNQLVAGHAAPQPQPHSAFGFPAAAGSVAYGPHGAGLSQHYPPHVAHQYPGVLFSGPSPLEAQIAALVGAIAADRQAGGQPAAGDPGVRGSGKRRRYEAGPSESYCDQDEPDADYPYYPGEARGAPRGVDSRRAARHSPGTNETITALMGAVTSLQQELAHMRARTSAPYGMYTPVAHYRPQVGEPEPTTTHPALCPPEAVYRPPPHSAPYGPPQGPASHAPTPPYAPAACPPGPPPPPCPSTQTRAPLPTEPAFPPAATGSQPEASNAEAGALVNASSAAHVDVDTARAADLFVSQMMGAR

In the case of `O=S(=O)(F)Cc1ccccc1` [Phenylmethansulfonyl fluoride], the “inhibition of the protease self-cleavage” value is “partially inhibiting”.
Still for that read-out and setting: the figure for `CCCCCCCCCCCCOS(=O)(=O)[O-].[Na+]` [SDS, sodium dodecyl sulphate] is 100%.
On to `CC(C)C[C@H](NC(=O)[C@@H](NC(=O)N[C@@H](Cc1ccccc1)C(=O)O)[C@@H]1CCN=C(N)N1)C(=O)N[C@H](C=O)Cc1ccccc1` [chymostatin], for which the “inhibition of the protease” value turned out to be 100%.
